pKd: −log10 of the molar value. Where two headings read alike, the source gives them in different places. Ends that are not written are not given here. Peptide text beside a SMILES is read from it. * marks the point of attachment. FITC = O=C1OC2(c3ccc(O)cc3Oc3cc(O)ccc32)c2ccc(NC(=S)*)cc21
Legend:
Type in all cases: binding
[1] = target: T1, USP22 zf-UBP domain (Homo sapiens, UniProt Q9UPT9); experiment: FP-monitored affinity measurements, USP22 zf-UBP; settings: USP22_zf-UBP
T1 construct: USP22_zf-UBP; Q9UPT9; zf-UBP; 37; 130; 6xHis-GST (N, cleaved yes); made in house; host or cells: Escherichia coli BL21-Gold (DE3)
T1 sequence (Q9UPT9 37-130): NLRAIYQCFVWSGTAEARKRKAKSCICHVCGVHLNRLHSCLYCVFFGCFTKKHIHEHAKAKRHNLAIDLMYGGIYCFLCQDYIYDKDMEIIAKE
Procedure: (§1) Proteins were expressed in Escherichia coli (E.coli) BL21-Gold (DE3) bacteria. The cDNAs encoding N-terminal 6-histidine-glutathione S-transferase tagged (6xHis-GST), 6xHis-tagged or GST-tagged protein domains in pETM33, pETM11, pGEX6P1 expression vectors respectively, were obtained from Genescript or kindly provided by MRC-PPU (Suppl. Data 1) The bacteria were transformed with the plasmid and grew at 37 °C in 2YT (5 g/L NaCl, 16 g/L tryptone and 10 g/L yeast extract) supplemented with Kanamycin (30 μg/mL) until reaching an OD600 of 0.7. Protein expression was induced with 0.3 mM isopropyl β-D-1 thiogalactopyranoside (IPTG) for 18 h at 18 °C while shaking. For zinc-finger domains, 50 μM of ZnSO4 was added during expression. The bacterial cultures were pelleted for 15 minutes at 4000 x g at 4 °C and stored at −20 °C until purification. The pellets were resuspended in lysis buffer (1× phosphate-buffered saline (PBS), 0.5 % Triton-X, 5 mM MgCl2, 10 μg/mL lysozyme, cOmplete^TM EDTA-free protease inhibitor cocktail (Roche), 10 μg/mL DNAseI) and incubated for 1 h shaking at 4 °C. […] The supernatant was incubated with glutathione (GSH) Sepharose (Cytiva) or Ni2+ Sepharose (Cytiva) for 1 h at 4 °C while shaking. The beads with the bound protein were washed with 1x PBS and eluted with 10 mM reduced glutathione in 50 mM Tris pH 8.0. For fluorescence polarization experiments, the proteins were not eluted from the beads, and the 6xHis-GST tag was cleaved overnight on GSH Sepharose beads at 4 °C while shaking with PreScission Protease in cleavage buffer (50 mM Tris pH 7.5, 150 mM NaCl, 1 mM DTT). The sample containing the cleaved domain was separated from the tag and protease and buffer-exchanged to 50 mM sodium phosphate buffer pH 7.4 with 1 mM DTT using a PD-10 desalting column (Cytiva). The purity and size of the proteins were analyzed by SDS-PAGE electrophoresis.
(§2) The measurements were performed at room temperature in a non-binding black half area 96-well plate (Corning) with a total volume of 50 μL per well. Peptides were obtained from GeneCust (France) with >95% purity. FITC-labeled peptides (N-terminally FITC-labeled without spacer and C-terminally amidated) were dissolved in dimethyl sulfoxide (DMSO), and unlabeled peptides (N-terminally acetylated and C-terminally amidated) were dissolved in 50 mM phosphate buffer pH 7.4. Saturation measurements were performed using a serial dilution of the protein domains in phosphate buffer (25 μL) and the addition of 10 nM FITC-labeled peptide (in phosphate buffer supplemented with 2 mM DTT) (25 μL). […] All measurements were performed in three technical replicates. The data were analyzed using GraphPad Prism version 9.2.0 for MacOS (GraphPad Software, San Diego, California USA, www.graphpad.com). The saturation curves were fitted to the quadratic equation, and the displacement curves were fitted to a sigmoidal dose-response equation as described previously.

[2] = target: T2, USP20 DUSP2 K833E-K835E (Homo sapiens, UniProt Q9Y2K6, K833E/K835E); experiment: FP-monitored affinity measurements, USP20 DUSP2 double mutant
T2 construct: USP20_DUSP2; Q9Y2K6; DUSP2; 776; 894; 6xHis-GST (N, cleaved yes); made in house; host or cells: Escherichia coli BL21-Gold (DE3)
Procedure: (§3) Proteins were expressed in Escherichia coli (E.coli) BL21-Gold (DE3) bacteria. The cDNAs encoding N-terminal 6-histidine-glutathione S-transferase tagged (6xHis-GST), 6xHis-tagged or GST-tagged protein domains in pETM33, pETM11, pGEX6P1 expression vectors respectively, were obtained from Genescript or kindly provided by MRC-PPU (Suppl. Data 1) The bacteria were transformed with the plasmid and grew at 37 °C in 2YT (5 g/L NaCl, 16 g/L tryptone and 10 g/L yeast extract) supplemented with Kanamycin (30 μg/mL) until reaching an OD600 of 0.7. Protein expression was induced with 0.3 mM isopropyl β-D-1 thiogalactopyranoside (IPTG) for 18 h at 18 °C while shaking. For zinc-finger domains, 50 μM of ZnSO4 was added during expression. […] For fluorescence polarization experiments, the proteins were not eluted from the beads, and the 6xHis-GST tag was cleaved overnight on GSH Sepharose beads at 4 °C while shaking with PreScission Protease in cleavage buffer (50 mM Tris pH 7.5, 150 mM NaCl, 1 mM DTT). […] The purity and size of the proteins were analyzed by SDS-PAGE electrophoresis.
(§4) The measurements were performed at room temperature in a non-binding black half area 96-well plate (Corning) with a total volume of 50 μL per well. […] The data were analyzed using GraphPad Prism version 9.2.0 for MacOS (GraphPad Software, San Diego, California USA, www.graphpad.com). […]

[3] = target: T3, USP20 DUSP2 N805A (Homo sapiens, UniProt Q9Y2K6, N805A); experiment: FP-monitored affinity measurements, USP20 DUSP2 single mutant
T3 construct: USP20_DUSP2; Q9Y2K6; DUSP2; 776; 894; 6xHis-GST (N, cleaved yes); made in house; host or cells: Escherichia coli BL21-Gold (DE3)
Procedure: as §3, §4

[4] = target: T4, USP11 DUSP-UBL domain (Homo sapiens, UniProt P51784); experiment: FP-based affinity measurements, USP11 DUSP-UBL
T4 construct: USP11_UBL; P51784; UBL; 6xHis-GST (N, cleaved yes); made in house; host or cells: Escherichia coli BL21-Gold (DE3)
Procedure: as §1
as §2, with “The saturation curves were fitted to the quadratic equation, and the displacement curves were fitted to a sigmoidal dose-response equation as described previously.” left out

[5] = target: T5, USP20 DUSP2 domain (Homo sapiens, UniProt Q9Y2K6); experiment: FP-monitored affinity measurements, USP20 DUSP2; settings: USP20_DUSP2; direct FP titration (saturation) of the FITC-labelled peptide; read-out: KD
T5 construct: USP20_DUSP2; Q9Y2K6; DUSP2; 776; 894; 6xHis-GST (N, cleaved yes); made in house; host or cells: Escherichia coli BL21-Gold (DE3)
Procedure: as §1, §2

[6] = target: T6, USP20 zf-UBP domain (Homo sapiens, UniProt Q9Y2K6); experiment: FP-monitored affinity measurements, USP20 zf-UBP; settings: for pKd: USP20_UBP, FP displacement by unlabelled peptide, read-out: KD
T6 construct: USP20_UBP; Q9Y2K6; zf-UBP; 99; 6xHis-GST (N, cleaved yes); made in house; host or cells: Escherichia coli BL21-Gold (DE3)
Procedure: (§5) The measurements were performed at room temperature in a non-binding black half area 96-well plate (Corning) with a total volume of 50 μL per well. […] All measurements were performed in three technical replicates. […] The saturation curves were fitted to the quadratic equation, and the displacement curves were fitted to a sigmoidal dose-response equation as described previously[68].

[7] = target: T7, USP33 zf-UBP domain (Homo sapiens, UniProt Q8TEY7); experiment: FP-monitored affinity measurements, USP33 zf-UBP; settings: for pKd: USP33_UBP, FP displacement by unlabelled peptide, read-out: KD
T7 construct: USP33_UBP; Q8TEY7; zf-UBP; 36; 130; 6xHis-GST (N, cleaved yes); made in house; host or cells: Escherichia coli BL21-Gold (DE3)
T7 sequence (Q8TEY7 with tags, fused parts or gaps): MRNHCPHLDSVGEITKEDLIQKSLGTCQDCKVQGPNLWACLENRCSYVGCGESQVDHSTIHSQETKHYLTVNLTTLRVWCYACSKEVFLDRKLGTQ
Procedure: as §5

[8] = FP displacement by unlabelled peptide
[9] = FP-monitored affinity measurement (Supplementary Fig. 4D)

T4 sequence (P51784 67-288): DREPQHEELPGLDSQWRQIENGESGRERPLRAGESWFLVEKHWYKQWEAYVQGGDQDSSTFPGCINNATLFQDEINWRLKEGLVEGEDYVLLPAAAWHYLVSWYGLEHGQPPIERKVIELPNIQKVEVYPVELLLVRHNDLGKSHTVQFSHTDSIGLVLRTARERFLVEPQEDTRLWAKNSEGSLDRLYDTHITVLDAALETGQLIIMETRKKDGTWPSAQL
T6 sequence (Q9Y2K6 4-99): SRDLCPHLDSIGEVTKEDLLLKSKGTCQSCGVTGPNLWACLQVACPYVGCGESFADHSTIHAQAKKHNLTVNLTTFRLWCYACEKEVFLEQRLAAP
T2 sequence (Q9Y2K6 with tags, fused parts or gaps K833E/K835E): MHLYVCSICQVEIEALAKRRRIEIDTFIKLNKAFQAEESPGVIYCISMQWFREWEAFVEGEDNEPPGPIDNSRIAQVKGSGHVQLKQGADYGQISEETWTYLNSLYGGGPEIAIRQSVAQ
T3 sequence (Q9Y2K6 with tags, fused parts or gaps N805A): as the sequence (Q9Y2K6 with tags, fused parts or gaps K833E/K835E) above, with N31A, E59K, E61K counted along it
T5 sequence (Q9Y2K6 with tags, fused parts or gaps): as the sequence (Q9Y2K6 with tags, fused parts or gaps K833E/K835E) above, with E59K, E61K counted along it

For `CC[C@H](C)[C@H](NC(=O)[C@H](Cc1c[nH]c2ccccc12)NC(=O)[C@H](CO)NC(=O)[C@H](CO)NC(=O)[C@H](Cc1c[nH]c2ccccc12)NC(=O)[C@@H]1CCCN1C(=O)[C@H](CCCCN)NC(=O)CNC(=O)[C@H](CC(C)C)NC(=O)[C@H](Cc1ccccc1)NC(=O)[C@H](C)NC(=O)[C@H](CCC(=O)O)NC(=O)[C@@H]1CCCN1C(=O)[C@H](CO)NC(=O)[C@@H]1CCCN1C(=O)[C@@H](NC(=S)Nc1ccc2c(c1)C(=O)OC21c2ccc(O)cc2Oc2cc(O)ccc21)C(C)C)C(=O)N[C@@H](CC(=O)O)C(=O)N[C@@H](C)C(=O)N[C@@H](C)C(=O)N[C@@H](CCCCN)C(=O)N[C@@H](CC(C)C)C(=O)N[C@@H](Cc1c[nH]cn1)C(N)=O` [FITC-ATXN7L1_36-57] ({FITC}-VPSPEAFLGKPWSSWIDAAKLH-NH2), the pKd ([1]; direct FP titration (saturation) of the FITC-labelled peptide) was 6.00.
Work on `CC[C@H](C)[C@H](NC(=O)[C@H](CC(N)=O)NC(=O)[C@H](Cc1c[nH]c2ccccc12)NC(=O)[C@H](C)NC(=O)[C@H](CC(C)C)NC(=O)[C@H](CC(=O)O)NC(=O)[C@H](CC(=O)O)NC(=O)[C@H](CC(=O)O)NC(=O)[C@H](CO)NC(=S)Nc1ccc2c(c1)C(=O)OC21c2ccc(O)cc2Oc2cc(O)ccc21)C(=O)N[C@@H](C)C(=O)N1CCC[C@H]1C(=O)N[C@@H](CCC(N)=O)C(=O)NCC(=O)N[C@@H](CC(C)C)C(=O)N[C@@H](CCC(N)=O)C(N)=O` [FITC-GPR137B348-362] ({FITC}-SDDDLAWNIAPQGLQ-NH2) yielded a pKd ([2]; FP, FITC-labeled probe peptide, double mutant domain (Fig. 5F), technical triplicate, read-out: KD, USP20 DUSP2 K833E-K835E with FITC-labeled probe peptide) of under 3.54 and a pKd ([3]; FP, FITC-labeled probe peptide, single mutant domain (Fig. 5F), technical triplicate, read-out: KD, USP20 DUSP2 N805A with FITC-labeled probe peptide) of under 3.89.
`CC[C@H](C)[C@H](NC(=O)[C@H](Cc1c[nH]c2ccccc12)NC(=O)[C@H](CC(=O)O)NC(=O)[C@@H]1CCCN1C(=O)[C@H](Cc1ccc(O)cc1)NC(=O)[C@@H](NC(=O)[C@@H](NC(=O)[C@H](C)NC(=O)[C@H](CO)NC(=S)Nc1ccc2c(c1)C(=O)OC21c2ccc(O)cc2Oc2cc(O)ccc21)C(C)C)[C@@H](C)O)C(=O)NCC(=O)N[C@@H](CCC(N)=O)C(=O)N[C@@H](CO)C(=O)N[C@@H](Cc1ccc(O)cc1)C(=O)N[C@@H](CO)C(=O)N[C@@H](CCC(=O)O)C(=O)N[C@H](C(N)=O)C(C)C` [FITC-ORA1] ({FITC}-SAVTYPDWIGQSYSEV-NH2) was tested, and the pKd ([4]; FP saturation, FITC-labeled peptide, technical triplicates, read-out: KD, USP11 DUSP-UBL, labeled peptide (direct binding)) was under 3.54.
`CC[C@H](C)[C@H](NC(=O)[C@H](Cc1c[nH]c2ccccc12)NC(=O)[C@H](CC(=O)O)NC(=O)[C@@H]1CCCN1C(=O)[C@H](Cc1ccc(O)cc1)NC(=O)[C@@H](NC(=O)[C@@H](NC(=O)[C@H](C)NC(=O)[C@H](CO)NC(=S)Nc1ccc2c(c1)C(=O)OC21c2ccc(O)cc2Oc2cc(O)ccc21)C(C)C)[C@@H](C)O)C(=O)NCC(=O)N[C@@H](CCC(N)=O)C(=O)N[C@@H](CO)C(=O)N[C@@H](Cc1ccc(O)cc1)C(=O)N[C@@H](CO)C(=O)N[C@@H](CCC(=O)O)C(=O)N[C@H](C(N)=O)C(C)C` [FITC-ORAI1] ({FITC}-SAVTYPDWIGQSYSEV-NH2) showed a pKd ([4]; USP11_DUSP_UBL, direct FP titration (saturation) of the FITC-labelled peptide, read-out: KD) of about 3.53.
Compound `CC[C@H](C)[C@H](NC(=O)[C@H](CC(N)=O)NC(=O)[C@H](Cc1c[nH]c2ccccc12)NC(=O)[C@H](C)NC(=O)[C@H](CC(C)C)NC(=O)[C@H](CC(=O)O)NC(=O)[C@H](CC(=O)O)NC(=O)[C@H](CC(=O)O)NC(=O)[C@H](CO)NC(=S)Nc1ccc2c(c1)C(=O)OC21c2ccc(O)cc2Oc2cc(O)ccc21)C(=O)N[C@@H](C)C(=O)N1CCC[C@H]1C(=O)N[C@@H](CCC(N)=O)C(=O)NCC(=O)N[C@@H](CC(C)C)C(=O)N[C@@H](CCC(N)=O)C(N)=O` [FITC_GPR137B] ({FITC}-SDDDLAWNIAPQGLQ-NH2) has a pKd ([2]; USP20_DUSP2_K833E/K835E, direct FP titration (saturation) of the FITC-labelled peptide, read-out: KD) of about 3.53, a pKd [5] of 5.29 and a pKd ([3]; USP20_DUSP2_N805A, direct FP titration (saturation) of the FITC-labelled peptide, read-out: KD) of about 3.86.
Work on Ac-SAVTYPDWIGQSYSEV-NH2 [ORAI1_USP11] yielded a pKd ([4]; USP11_DUSP_UBL, FP displacement of the FITC-labelled peptide by unlabelled peptide, read-out: KD) of about 3.68.
For “Ac-VPSLDDFAGQSWSSWVE-NH2 [ATXN7L2_18-34]”, the pKd [1, 8] was 4.71.
“Ac-VPSLDDFAGQSWSSWVERADLP-NH2 [ATXN7L2_18-39]” gave a pKd [1, 8] of 5.54.
For “Ac-VPSPEAFLGKPWSSWID-NH2 [ATXN7L1_36-52]”, the pKd [1, 8] was 4.96.
For “Ac-VPSPEAFLGKPWSSWIDAAKLH-NH2 [ATXN7L1_36-57]”, the pKd [1, 8] was 7.00.
In the case of SAVTYPDWIGQSYSEV [ORAI1_48-63], the pKd ([4]; competitive FP, technical triplicates, read-out: KD, USP11 DUSP-UBL, unlabeled peptide (competitive binding)) was under 3.70.
With YPFQPGRMALESQSPG [USP19] the pKd [6] was about 3.79 and the pKd [7] was 4.39.
For YTNSSGKMALNSPQPG [IRAG1], the pKd [6] was 5.04 and the pKd [7] was 5.10.
“ubiquitin C-terminus: ubiquitin C-terminal peptide (YLRLRGG) [reference compound]” was tested, and the “binding of the ubiquitin C-terminus to USP20 zf-UBP” value [6, 9] was “do not bind the ubiquitin C-terminus with measurable affinity”, the pKd [6] was under 4.30 and the “binding of the ubiquitin C-terminus to USP33 zf-UBP” value [7, 9] was “do not bind the ubiquitin C-terminus with measurable affinity”.

From paper PMC13376213, “Systematic discovery of motif-based interactions of the auxiliary domains of USP family deubiquitinases” (Nature Communications, 2026)
